Measured values reported in ChEMBL document CHEMBL4376815, “The Development Process for Discovery and Clinical Advancement of Modern Antimalarials” (J Med Chem, 2019).
Values after ≈ are worked out from the molar mass of the structure shown.

How the values were obtained:
Plasmodium falciparum [1] = test: Antimalarial activity against Plasmodium falciparum infected in po dosed human assessed as reduction in parasite growth; type: functional
[2] = Cytotoxicity against human HepG2 cells assessed as reduction in cell viability after 4 days by XTT assay; type: cell-based
Plasmodium falciparum [3] = test: Antimalarial activity against Plasmodium falciparum V1/S infected in human erythrocytes assessed as reduction in [3H]-hypoxanthine incorporation incubated for 48 hrs followed by addition of [3H]-hypoxanthine and measured after 24 hrs by liquid scintillation counting method; type: functional, organism-based
[4] = Half life in human at 300 mg/kg, po by LC-MS/MS analysis; settings: in vivo
[5] = Cytotoxicity against human THP1 cells assessed as reduction in cell viability after 4 days by XTT assay; type: cell-based; settings: THP-1 cells
[6] = Plasma protein binding in human; type: ADME, cell-free; settings: read-out: PPB
[7] = Half life in Wistar Hannover rat at 5 mg/kg, iv by LC-MS/MS analysis; settings: in vivo
[8] = Clearance in Wistar Hannover rat at 5 mg/kg, iv by LC-MS/MS analysis; type: ADME, organism-based; settings: in vivo
Plasmodium berghei [9] = test: Antimalarial activity against Plasmodium berghei infected in NMRI mouse assessed as reduction in parasite growth at 50 mg/kg, po administered daily for 3 consecutive days by flow cytometric analysis relative to control; type: functional; parameters: scale not given: the % may be the effect or the level left
Plasmodium falciparum [10] = test: Antimalarial activity against Plasmodium falciparum infected in human assessed as reduction in parasite growth at 30 mg/kg, po administered daily for 3 consecutive day and measured on day 5 relative to control; type: functional; parameters: scale not given: the % may be the effect or the level left
[11] = target: Voltage-gated inwardly rectifying potassium channel KCNH2 (Homo sapiens, UniProt Q12809); test: Inhibition of human ERG by binding assay
Voltage-gated inwardly rectifying potassium channel KCNH2, sequence (Q12809 whole entry): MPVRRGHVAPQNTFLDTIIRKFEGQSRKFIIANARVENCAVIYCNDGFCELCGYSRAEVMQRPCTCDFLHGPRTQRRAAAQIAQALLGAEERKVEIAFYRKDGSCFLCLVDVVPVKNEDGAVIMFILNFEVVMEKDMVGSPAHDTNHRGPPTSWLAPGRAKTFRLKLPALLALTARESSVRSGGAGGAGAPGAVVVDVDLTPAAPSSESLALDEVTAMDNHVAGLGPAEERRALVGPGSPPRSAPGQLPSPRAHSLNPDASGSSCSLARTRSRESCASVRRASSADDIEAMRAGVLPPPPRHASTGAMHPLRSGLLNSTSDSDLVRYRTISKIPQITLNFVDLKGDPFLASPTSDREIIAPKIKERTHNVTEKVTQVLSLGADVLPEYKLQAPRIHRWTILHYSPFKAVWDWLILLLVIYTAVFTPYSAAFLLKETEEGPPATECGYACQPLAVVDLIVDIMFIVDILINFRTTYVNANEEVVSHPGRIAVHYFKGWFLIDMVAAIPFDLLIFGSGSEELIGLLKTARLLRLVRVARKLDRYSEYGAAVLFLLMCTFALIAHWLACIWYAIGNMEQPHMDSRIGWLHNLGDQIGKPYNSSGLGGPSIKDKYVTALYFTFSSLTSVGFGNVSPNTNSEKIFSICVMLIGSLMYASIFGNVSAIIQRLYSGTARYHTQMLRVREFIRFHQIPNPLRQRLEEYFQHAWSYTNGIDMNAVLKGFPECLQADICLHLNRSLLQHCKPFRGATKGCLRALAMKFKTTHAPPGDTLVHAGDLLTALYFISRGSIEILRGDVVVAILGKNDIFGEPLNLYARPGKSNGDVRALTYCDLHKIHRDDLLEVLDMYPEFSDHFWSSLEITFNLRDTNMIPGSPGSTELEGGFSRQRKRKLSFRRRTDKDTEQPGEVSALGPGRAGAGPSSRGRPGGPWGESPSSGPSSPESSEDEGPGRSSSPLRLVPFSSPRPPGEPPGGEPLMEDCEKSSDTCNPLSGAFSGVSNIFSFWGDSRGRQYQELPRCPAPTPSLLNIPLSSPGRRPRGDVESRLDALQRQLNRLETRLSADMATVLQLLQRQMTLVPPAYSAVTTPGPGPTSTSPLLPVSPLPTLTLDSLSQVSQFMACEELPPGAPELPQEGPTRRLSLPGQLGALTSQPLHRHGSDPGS

Plasmodium falciparum [12] = test: Antimalarial activity against Plasmodium falciparum TM90C2A infected in human erythrocytes assessed as reduction in [3H]-hypoxanthine incorporation incubated for 48 hrs followed by addition of [3H]-hypoxanthine and measured after 24 hrs by liquid scintillation counting method; type: functional, organism-based
[13] = Cmax in Wistar Hannover rat at 10 mg/kg, po by LC-MS/MS analysis; type: ADME, organism-based; parameters: dose 10 mg/kg, route oral; settings: in vivo
Plasmodium berghei [14] = test: Antimalarial activity against Plasmodium berghei infected in NMRI mouse assessed as reduction in parasite growth at 10 mg/kg, po administered daily for 3 consecutive days by flow cytometric analysis relative to control; type: functional; parameters: scale not given: the % may be the effect or the level left
Plasmodium vivax = test: Antimalarial activity against Plasmodium vivax infected in human assessed as median parasite clearance time at 30 mg/kg, po administered daily for 3 consecutive day and measured on day 5; type: functional
Plasmodium berghei [15] = test: Antimalarial activity against Plasmodium berghei infected in NMRI mouse assessed as mean survival days at 100 mg/kg, po administered once and measured up to 30 days; type: functional
Plasmodium falciparum [16] = test: Antimalarial activity against Plasmodium falciparum D6 infected in human erythrocytes assessed as reduction in [3H]-hypoxanthine incorporation incubated for 48 hrs followed by addition of [3H]-hypoxanthine and measured after 24 hrs by liquid scintillation counting method; type: functional, organism-based
[17] = Clearance in Beagle dog at 1 mg/kg, iv by LC-MS/MS analysis; type: ADME, organism-based, Canis lupus familiaris; settings: in vivo
[18] = Cmax in human at 150 mg, po for 3 days and measured on day 1 by LC-MS/MS analysis; settings: in vivo
in vivo [19] = settings: rat, po, 23.7 mg/kg
Description: Half life in rat at 23.7 mg/kg, po and measured up to 24 hrs by LC/MS analysis

[20] = Cmax in human at […], po and measured up to 96 to 144 hrs by LC-MS/MS analysis; type: ADME, organism-based; parameters: route oral; settings: in vivo
[21] = Half life in human at 30 mg/kg, po; settings: in vivo
Plasmodium falciparum [22] = test: Antimalarial activity against Plasmodium falciparum 3D7 infected in human erythrocytes assessed as reduction in [3H]-hypoxanthine incorporation incubated for 48 hrs followed by addition of [3H]-hypoxanthine and measured after 24 hrs by liquid scintillation counting method; type: functional, organism-based
[23] = Tmax in Beagle dog at 3 mg/kg, po by LC-MS/MS analysis; type: ADME, organism-based, Canis lupus familiaris; settings: in vivo
[24] = Oral bioavailability in Wistar Hannover rat at 10 mg/kg by LC-MS/MS analysis; type: ADME, organism-based; settings: in vivo
[25] = Tmax in Wistar Hannover rat at 10 mg/kg, po by LC-MS/MS analysis; type: ADME, organism-based; settings: in vivo
Plasmodium falciparum [26] = test: Antimalarial activity against Plasmodium falciparum 7G8 infected in human erythrocytes assessed as reduction in [3H]-hypoxanthine incorporation incubated for 48 hrs followed by addition of [3H]-hypoxanthine and measured after 24 hrs by liquid scintillation counting method; type: functional, organism-based
[27] = Half life in Beagle dog at 1 mg/kg, iv by LC-MS/MS analysis; settings: in vivo
[28] = Oral bioavailability in mouse at 24.6 mg/kg and measured up to 24 hrs by LC/MS analysis; type: ADME, organism-based; settings: in vivo
[29] = Cmax in Beagle dog at 3 mg/kg, po by LC-MS/MS analysis; type: ADME, organism-based, Canis lupus familiaris; parameters: dose 3 mg/kg, route oral; settings: in vivo
[30] = Cmax in human at 150 mg, po for 3 days and measured on day 3 by LC-MS/MS analysis; settings: in vivo
Plasmodium berghei [31] = test: Antimalarial activity against Plasmodium berghei infected in po dosed NMRI mouse assessed as reduction in parasite growth administered daily for 3 consecutive days by flow cytometric analysis; type: functional
[32] = Half life in human; type: ADME
[33] = AUC (0 to 24 hrs) in human at 150 mg, po for 3 days and measured on day 3 by LC-MS/MS analysis; settings: in vivo
Plasmodium berghei [34] = test: Antimalarial activity against Plasmodium berghei infected in NMRI mouse assessed as reduction in parasite growth at 10 mg/kg, po administered once and measured after 96 hrs by flow cytometric analysis relative to control; type: functional; parameters: scale not given: the % may be the effect or the level left
in vivo [35] = settings: mouse, po, 24.6 mg/kg
Description: Half life in mouse at 24.6 mg/kg, po and measured up to 24 hrs by LC/MS analysis

Plasmodium berghei [36] = test: Antimalarial activity against Plasmodium berghei infected in NMRI mouse assessed as mean survival days at 30 mg/kg, po administered once and measured up to 30 days; type: functional
Plasmodium falciparum [37] = test: Antimalarial activity against Plasmodium falciparum infected in human assessed as median parasite clearance time at 30 mg/kg, po administered daily for 3 consecutive day and measured on day 5; type: functional
Plasmodium falciparum [38] = test: Antimalarial activity against Plasmodium falciparum infected in human assessed as median clearance time at 30 mg/kg, po administered daily for 3 consecutive day and measured on day 5; type: functional
[39] = Drug recovery in feces of po dosed human by LC-MS/MS analysis; type: ADME, organism-based; settings: faeces, read-out: Drug recovery
[40] = AUC (infinity) in rat at 23.7 mg/kg, po and measured up to 24 hrs by LC/MS analysis; type: ADME, organism-based; parameters: dose 23.7 mg/kg, route oral, time infinity; settings: in vivo
Plasmodium falciparum [41] = test: Antimalarial activity against Plasmodium falciparum TM91C235 infected in human erythrocytes assessed as reduction in [3H]-hypoxanthine incorporation incubated for 48 hrs followed by addition of [3H]-hypoxanthine and measured after 24 hrs by liquid scintillation counting method; type: functional, organism-based
[42] = Metabolic stability in human assessed as paren compound remaining at […], po by LC-MS/MS analysis; type: ADME, organism-based; settings: in vivo

C[C@H]1Cc2c([nH]c3cc(Cl)c(F)cc23)[C@@]2(N1)C(=O)Nc1ccc(Cl)cc12 [CIPARGAMIN]
MIC (Plasmodium falciparum [1]): 0.126 ng/mL (≈ 0.323 nM) | CC50 at 96 h [2]: > 10000 nM | EC50 (Plasmodium falciparum [3]): 0.5 to 1.4 nM | half-life [4]: 24 h | CC50 at 96 h [5]: > 10000 nM | fraction unbound [6]: < 0.003 | half-life [7]: 8.2 h | clearance [8]: 4.2 mL/min/kg | Activity (Plasmodium berghei [9]): 100% | Activity (Plasmodium falciparum [10]): 100% | IC50 [11]: ≥ 30000 nM | EC50 (Plasmodium falciparum [12]): 0.5 to 1.4 nM | Cmax [13]: 1210 ng/mL | Activity (Plasmodium berghei [14]): 50% | Time (Plasmodium vivax): 12 h | MSD (Plasmodium berghei [15]): >30 days | EC50 (Plasmodium falciparum [16]): 0.5 to 1.4 nM | clearance [17]: 3.35 mL/min/kg | Cmax [18]: 1170 ng/mL | half-life at 24 h (in vivo [19]): 27.7 h | Cmax [20]: 2000 ng/mL | half-life [21]: 20.8 h | EC50 (Plasmodium falciparum [22]): 0.5 to 1.4 nM | Tmax [23]: 1.7 h | bioavailability [24]: 85% | Tmax [25]: 5.3 h | EC50 (Plasmodium falciparum [26]): 0.5 to 1.4 nM | half-life [27]: 10.9 h | bioavailability [28]: 100% | Cmax [29]: 868 ng/mL | Cmax [30]: 1770 ng/mL | ED50 (Plasmodium berghei [31]): 1.2 mg/kg | ED90 (Plasmodium berghei [31]): 2.7 mg/kg | ED99 (Plasmodium berghei [31]): 5.3 mg/kg | half-life [32]: 33 h | AUC at 24 h [33]: 29400 ng·h/mL | Activity (Plasmodium berghei [34]): 9.96% | half-life at 24 h (in vivo [35]): 10 h | MSD (Plasmodium berghei [36]): 24.1 days | Time (Plasmodium falciparum [37]): 12 h | Time (Plasmodium falciparum [38]): 16 h | dose excreted [39]: 32% | AUC(0-inf) [40]: 524 µM·h | EC50 (Plasmodium falciparum [41]): 0.5 to 1.4 nM | Stability [42]: 75%
